A value given as a limit tells only on which side of the number the result lay.

What all share (assay type): cell-based
One assay deals with T1, VEGFR-2 (Homo sapiens, UniProt P35968).
T1 construct: endogenous in cells; host or cells: primary HUVEC
The experiment in a line: VEGF-165 induced phosphorylation of VEGF-Receptor on HUVEC. As to conditions: HUVEC preincubated 60 min, VEGF165 25 ng/mL 2 min; read-out: VEGFR-Phosphorylation inhibition IC50.

The target of the next assay is T2, FGF-1 (Homo sapiens, UniProt P05230).
T2 construct: purchased Peprotech 100-17A
Description: FGF-1 induced sprouting of HUVEC, spheroid-based cellular angiogenesis assay. As to conditions: FGF-1 25 ng/mL preincubated with compound, 24 h. The procedure, abridged:
(§1)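 Compound (final 100 down to 1.56×10^−6 M) was mixed with growth factor (final 25 ng/mL) for 30 min at 37°C, then added onto collagen-embedded 400-cell HUVEC spheroids.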

Assay [1] deals with Human neutrophils. Description: Neutrophil adhesion under static conditions. To be noted: fMLP-stimulated adhesion to fibrinogen; method: 40 μM and 80 μM, concentration of the value not stated. The method, boiled down:
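Donor buffy-coat neutrophils (3×10^6/ml, PBS with Ca/Mg, 10% FCS, pH 7.2) preincubated 30 min at 37° C with 40 μM or 80 μM compound, then stimulated 1 min at 37° C with 1 nM fMLP on fibrinogen-coated glass. Adherent cells fixed and counted by computer; mean ± SD, unpaired t-test.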

For assay [2], the system named is Human neutrophils. Description: Inhibition of ROS production in human neutrophils (isoluminol chemiluminescence). As to conditions: Homo sapiens, Neutrophil, fMLP+TNF-α stimulated PMN. The procedure, abridged: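 Extracellular ROS measured as isoluminol-amplified chemiluminescence following 1 μM fMLP activation on fibrinogen-coated plates, readings every 25 sec over 250 sec minus HBSS/isoluminol background. Beforehand, cells were treated with compounds at 0.1, 0.3, 1, 3 or 10 μM (30 min, 37° C) and TNF-α (20 ng/ml, 10 min); duplicate or triplicate.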

Another assay deals with T3, FGF-2 (Homo sapiens, UniProt P09038).
T3 construct: purchased Peprotech 100-18C
The experiment in a line: FGF-2 induced sprouting of HUVEC, spheroid-based cellular angiogenesis assay. To be noted: FGF-2 25 ng/mL preincubated with compound, 24 h. The procedure, abridged:
as §1

The next assay deals with T4, VEGF-A (Homo sapiens, UniProt P15692).
T4 construct: purchased ProQinase GmbH
T4 sequence (P15692 27-191 isoform P15692-4): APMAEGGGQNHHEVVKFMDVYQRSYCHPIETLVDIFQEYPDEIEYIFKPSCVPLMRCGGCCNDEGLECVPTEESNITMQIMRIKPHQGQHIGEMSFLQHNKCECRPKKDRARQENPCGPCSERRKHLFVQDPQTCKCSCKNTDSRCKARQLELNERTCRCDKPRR
Description: VEGF-A induced sprouting of HUVEC, spheroid-based cellular angiogenesis assay. As to conditions: VEGF-A 25 ng/mL preincubated with compound, 24 h, read-out: VEGF-A1 IC50. The procedure:
Aim of this in vitro method is to assess compounds effects on FGF-2, FGF-1, or VEGF-A induced sprouting of human umbilical vein endothelial cells (HUVEC) in the spheroid-based cellular angiogenesis assay. Before adding the growth factors to the cells, they were preincubated with the compound. Sunitinib was tested as a control (without preincubation).
IC50 values determined for the tested compounds are expressed in microM [μM] and the values for the inhibition of FGF-1, FGF2 and VEGF-A induced growth (sprouting) are listed after each compound in the examples after chemical characterization.
Sprouting test was performed on the compounds dissolved in DMSO to reach 100-fold concentrated stock solutions and dissolved in culture media. Sunitinib as reference compound was provided by ProQinase GmbH. Growth factors were purchased from rhFGF-basic (FGF-2), Peprotech, New Jersey, USA, #100-18C, Lot #0415571; rhFGF-acidic (FGF-1), Peprotech, New Jersey, USA, #100-17A, Lot #031207; hVEGF-A165 (ProQinase GmbH, Freiburg, Germany; 05.02.2010) were used for stimulation of HUVEC cells growth.
Test system: Endothelial cells from human umbilical vein (HUVEC) from pooled donors were stored frozen with 70% medium, 20% FCS, 10% DMSO at about 1×10^6 cells/ampoule. HUVEC cells, primary human umbilical vein endothelial cells (PromoCell, Heidelberg, Germany), were used after passage 3 to 4. Morphology of the cells are adherent, cobblestone-like growing as monolayer and were cultured in endothelial cell growth and basal medium (ECGM/ECBM, PromoCell). The subculture was split 1:3; every 3-5 days, seed out at ca. 1×10^4 cells/cm^2 and incubated at 37° C. with 5% CO2 with a doubling time 24-48 hours
Dilution of test compounds: 100× concentrated solutions (concerning to the final assay concentrations) of each test compound were prepared with the appropriate solvent (in DMSO or in water). These 100×compound solutions were further diluted in endothelial cell growth and basal medium (ECBM) 1:7.5 to get a 13.33× concentrated solution. 75 μl of the 13.33×solution was subsequently mixed with 25 μl of 40× concentrated stimulus (solved in ECBM), resulting in a 10×concentrated stimulus/compound mixture. This mixture (100 μl) was incubated for 30 min at 37° C. and then added to 900 μl gel, containing the HUVEC spheroids (resulting in the final assay concentration).
Test method: the experiments were pursued in modification of the originally published protocol (Korff and Augustin: J Cell Sci 112: 3249-58, 1999). In brief, spheroids were prepared as described (Korff and Augustin: J Cell Biol 143: 1341-52, 1998) by pipetting 400 HUVEC in a hanging drop on plastic dishes to allow overnight spheroid aggregation. 50 HUVEC spheroids were then seeded in 0.9 ml of a collagen gel and pipetted into individual wells of a 24 well plate to allow polymerization. The test compounds were preincubated with the growth factors (FGF-1, FGF-2 or VEGF-A final concentration 25 ng/mL) in a 10-fold concentrated solution and subsequently, 100 μl of this solution was added on top of the polymerized gel. All compounds were diluted in solvent (DMSO or water) as 100×stocks first (which means 100×stocks of each final assay concentration were prepared in solvent). Subsequently, these stocks were further diluted in medium (resulting in the 13.33×stocks of each final assay concentration) with final concentrations tested: 100, 50, 25, 12.5, 6.25, 3.13 and 1.56×10^−6 M). Plates were incubated at 37° C. for 24 hours and fixed by adding 4% PFA (Roth, Karlsruhe, Germany).
Quantification of growth factor inhibition: sprouting intensity of HUVEC spheroids treated with the growth factor and the inhibitors were quantitated by an image analysis system determining the cumulative sprout length per spheroid (CSL).

T2 sequence (P05230 whole entry): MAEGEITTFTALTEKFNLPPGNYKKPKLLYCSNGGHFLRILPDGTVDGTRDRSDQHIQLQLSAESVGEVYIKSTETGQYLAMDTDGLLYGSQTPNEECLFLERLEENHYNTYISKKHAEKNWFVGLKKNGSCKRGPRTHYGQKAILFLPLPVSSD
T3 sequence (P09038 134-288): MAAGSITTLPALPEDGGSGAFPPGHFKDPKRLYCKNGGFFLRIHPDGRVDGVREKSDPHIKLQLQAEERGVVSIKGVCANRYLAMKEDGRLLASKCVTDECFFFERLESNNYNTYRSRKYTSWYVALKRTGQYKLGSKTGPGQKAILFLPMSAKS
T1 sequence (P35968 20-1356): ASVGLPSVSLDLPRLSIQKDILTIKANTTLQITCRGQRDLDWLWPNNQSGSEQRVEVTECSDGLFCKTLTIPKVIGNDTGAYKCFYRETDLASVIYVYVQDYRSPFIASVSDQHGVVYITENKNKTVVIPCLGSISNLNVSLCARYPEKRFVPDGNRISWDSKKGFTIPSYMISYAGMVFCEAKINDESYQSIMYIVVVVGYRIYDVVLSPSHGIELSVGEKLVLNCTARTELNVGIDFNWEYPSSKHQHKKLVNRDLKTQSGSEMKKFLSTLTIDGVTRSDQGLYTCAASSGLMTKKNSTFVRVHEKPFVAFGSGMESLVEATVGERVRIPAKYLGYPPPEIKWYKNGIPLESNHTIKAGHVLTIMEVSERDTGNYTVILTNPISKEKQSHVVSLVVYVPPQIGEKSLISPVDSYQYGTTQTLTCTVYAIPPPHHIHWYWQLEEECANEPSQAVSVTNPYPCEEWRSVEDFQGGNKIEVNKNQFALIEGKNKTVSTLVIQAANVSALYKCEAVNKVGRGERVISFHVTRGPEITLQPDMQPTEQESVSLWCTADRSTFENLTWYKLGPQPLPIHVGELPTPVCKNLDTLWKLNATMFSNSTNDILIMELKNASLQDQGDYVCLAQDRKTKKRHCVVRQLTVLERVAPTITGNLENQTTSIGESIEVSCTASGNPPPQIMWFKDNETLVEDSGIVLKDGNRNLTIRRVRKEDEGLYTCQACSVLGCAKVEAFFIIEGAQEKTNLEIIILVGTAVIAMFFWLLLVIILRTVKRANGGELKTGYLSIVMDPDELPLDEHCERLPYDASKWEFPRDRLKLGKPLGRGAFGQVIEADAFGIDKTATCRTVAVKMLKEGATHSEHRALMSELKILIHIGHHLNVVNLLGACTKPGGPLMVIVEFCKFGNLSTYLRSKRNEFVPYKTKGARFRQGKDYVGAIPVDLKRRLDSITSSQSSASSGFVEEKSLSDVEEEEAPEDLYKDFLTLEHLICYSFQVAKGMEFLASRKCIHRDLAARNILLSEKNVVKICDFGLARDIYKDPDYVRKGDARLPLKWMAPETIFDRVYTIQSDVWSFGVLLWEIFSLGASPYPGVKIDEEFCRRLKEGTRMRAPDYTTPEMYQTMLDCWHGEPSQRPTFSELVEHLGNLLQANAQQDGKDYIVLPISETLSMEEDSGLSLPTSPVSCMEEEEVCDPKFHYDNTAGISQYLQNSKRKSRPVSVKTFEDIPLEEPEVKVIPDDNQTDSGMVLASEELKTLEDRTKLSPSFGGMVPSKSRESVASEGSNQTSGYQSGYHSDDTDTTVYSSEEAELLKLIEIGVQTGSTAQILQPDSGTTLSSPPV

On to `O=C(O)c1cc(O)cc(C(=O)NCc2ccc(O)c(O)c2)c1O` [IIa-035a, 3-(3,4-Dihydroxyphenylmethylaminocarbonyl)-2,5-dihydroxybenzoic acid], for which the 50% inhibitory concentration (IC50) came to 0.52 µM on VEGFR-2; 16 µM at FGF-1; 1 µM in the assay with Human neutrophils [2]; 61 µM at FGF-2; 45 µM at VEGF-A. The molecule further had a Neutrophil adhesion inhibition with Human neutrophils [1] of 36.67%. This molecule gave an inhibition at 0.3 µM with Human neutrophils [2] of 77%.

For the molecule `COC(=O)c1cc(O)cc(CS(=O)(=O)Cc2cc(O)cc(C(=O)OC)c2O)c1O` [IVc-059a-E2], the half-maximal inhibitory concentration (IC50) was 2.7 µM at VEGFR-2; 78 µM at FGF-1; 2.64 µM in the assay with Human neutrophils [2]; 94 µM at FGF-2; at least 200 µM on VEGF-A. The Neutrophil adhesion inhibition with Human neutrophils [1] worked out at 50.5%. In the assay on Human neutrophils [2], this molecule had an inhibition at 0.3 µM of 45.7%.

Consider `CCOC(=O)c1cc(O)c(C(=O)Nc2ccccc2C(=O)OCC)cc1O` [Ia-001a-E2, ethyl 4-(2-(ethoxycarbonyl)phenylaminocarbonyl)-2,5-dihydroxybenzoate], for which the concentration for half-maximal inhibition (IC50) is 1.25 µM on VEGFR-2; 9.2 µM at FGF-1; 2.58 µM in the assay on Human neutrophils [2]; at least 200 µM at FGF-2; 123 µM on VEGF-A. This molecule had a Neutrophil adhesion inhibition in the assay on Human neutrophils [1] of 50.5%. Moreover, in the assay with Human neutrophils [2], 0.3 µM produced 51.5% inhibition.

With `CCOC(=O)c1cc(O)c(C(=O)Nc2ccccc2-c2nnn[nH]2)cc1O` [Ia-001a-Tz-E1, ethyl 4-(2-(1H-tetrazol-5-yl)phenylaminocarbonyl)-2,5-dihydroxybenzoate], the IC50 on VEGFR-2 is 3.8 µM; at FGF-1 it was at least 200 µM; at FGF-2, at least 200 µM; on VEGF-A, at least 200 µM. In the assay with Human neutrophils [1], this molecule had a Neutrophil adhesion inhibition of 98.88%. This molecule returned an inhibition at 0.3 µM in the assay on Human neutrophils [2] of 76%.

Turning to `O=C(O)c1cccc(NC(=O)c2cc(O)c(C(=O)O)cc2O)c1` [Ia-002a, 4-(3-carboxyphenylaminocarbonyl)-2,5-dihydroxybenzoic acid], the IC50 was 5.7 µM on VEGFR-2; 20 µM on FGF-1; 0.312 µM with Human neutrophils [2]; 59 µM at FGF-2; 71 µM on VEGF-A. This molecule showed a Neutrophil adhesion inhibition in the assay on Human neutrophils [1] of 27.92%. 0.3 µM produced 42.1% inhibition in the assay with Human neutrophils [2].

For `O=C(O)c1cc(O)c(C(=O)Nc2cccc(-c3nnn[nH]3)c2)cc1O` [Ia-002a-Tz, 4-(3-(1H-tetrazol-5-yl)phenyl-aminocarbonyl)-2,5-dihydroxybenzoic acid], the IC50 was at least 100 µM on VEGFR-2; 10 µM at FGF-1; 1.86 µM in the assay with Human neutrophils [2]; 53 µM at FGF-2; 57 µM on VEGF-A. Besides, the Neutrophil adhesion inhibition in the assay on Human neutrophils [1] is 38.5%. Further, the inhibition at 0.3 µM with Human neutrophils [2] stood at 66.6%.

For the molecule `O=C(O)c1cc(NC(=O)c2cc(O)c(C(=O)O)cc2O)ccc1O` [Ia-004a, 4-(3-carboxy-4-hydroxyphenylaminocarbonyl)-2,5-dihydroxybenzoic acid], the half-maximal inhibitory concentration (IC50) turned out to be 7.7 µM on VEGFR-2, 32 µM on FGF-1, 15 µM on FGF-2 and 28 µM on VEGF-A. In the assay with Human neutrophils [1], this molecule had a Neutrophil adhesion inhibition of 28.38%. The molecule also yielded an inhibition at 0.3 µM in the assay with Human neutrophils [2] of 64.6%.

Take `O=C(O)c1cc(O)c(C(=O)Nc2cccc(C(=O)O)c2C(=O)O)cc1O` [Ia-011a, 3-(4-carboxy-2,5-dihydroxybenzamido)phthalic acid]: the IC50 on VEGFR-2 was at least 100 µM; on FGF-1 it was 35 µM; on FGF-2 it was 110 µM; at VEGF-A it was at least 200 µM. Further, the Neutrophil adhesion inhibition in the assay on Human neutrophils [1] came out at 42.32%. The same molecule registered an inhibition at 0.3 µM with Human neutrophils [2] of 57.7%.

On to `O=C(O)c1ccc(C(=O)O)c(NC(=O)c2cc(O)c(C(=O)O)cc2O)c1` [Ia-012a, 2-(4-carboxy-2,5-dihydroxybenzamido)terephthalic acid], for which the 50% inhibitory concentration (IC50) was at least 100 µM at VEGFR-2; 38 µM on FGF-1; 1.85 µM in the assay with Human neutrophils [2]; 36 µM at FGF-2; 30 µM on VEGF-A. Besides, the Neutrophil adhesion inhibition with Human neutrophils [1] was determined as 28.5%. In addition, in the assay on Human neutrophils [2], the inhibition at 0.3 µM stood at 59.5%.

Consider `O=C(O)c1cc(O)c(C(=O)Nc2c(C(=O)O)cccc2C(=O)O)cc1O` [Ia-013a, 2-(4-carboxy-2,5-dihydroxybenzamido)isophthalic acid], for which the IC50 on VEGFR-2 was at least 100 µM; at FGF-1, 29 µM; in the assay with Human neutrophils [2], 2.38 µM; on FGF-2 it was 18 µM; at VEGF-A, 17 µM. In addition, the Neutrophil adhesion inhibition in the assay with Human neutrophils [1] was 27.67%. Besides, 0.3 µM produced 38.5% inhibition with Human neutrophils [2].

`O=C(O)c1cc(O)c(C(=O)Nc2ccc(C(=O)O)c(C(=O)O)c2)cc1O` [Ia-014a, 4-(4-carboxy-2,5-dihydroxybenzamido)phthalic acid]: the half-inhibitory concentration (IC50) is at least 100 µM on VEGFR-2; 20 µM at FGF-1; 1 µM in the assay on Human neutrophils [2]; 20 µM on FGF-2; 88 µM at VEGF-A. The molecule further came in with a Neutrophil adhesion inhibition in the assay with Human neutrophils [1] of 9.667%. This molecule also showed an inhibition at 0.3 µM with Human neutrophils [2] of 61.3%.

With `O=C(O)Cc1ccccc1NC(=O)c1cc(O)c(C(=O)O)cc1O` [Ia-034a, 4-(2-(carboxymethyl)phenylaminocarbonyl)-2,5-dihydroxybenzoic acid], the IC50 was at least 100 µM on VEGFR-2; 79 µM on FGF-1; 2.28 µM in the assay with Human neutrophils [2]; 14 µM on FGF-2; 102 µM on VEGF-A. In the assay with Human neutrophils [1], this molecule registered a Neutrophil adhesion inhibition of 15%. For the same molecule, the inhibition at 0.3 µM in the assay on Human neutrophils [2] was determined as 49.1%.

Turning to `O=C(O)c1cc(O)c(C(=O)NCCc2ccc(O)c(O)c2)cc1O` [Ia-035a-2, 4-(2-(3,4-Dihydroxyphenyl)ethylaminocarbonyl)-2,5-dihydroxybenzoic acid], the half-inhibitory concentration (IC50) at VEGFR-2 is 10 µM; at FGF-1 it was 10 µM; with Human neutrophils [2], 1.1 µM; on FGF-2, 65 µM; at VEGF-A, 109 µM. The Neutrophil adhesion inhibition with Human neutrophils [1] worked out at 21.5%. Besides, in the assay with Human neutrophils [2], at 0.3 µM the inhibition was 58.8%.

These data come from patent US20230150951A1, “2,5- OR 2,6-DISUBSTITUTED HYDROQUINONE DERIVATIVES WITH AT LEAST ONE CARBOXY, SULFO OR AMIDO GROUP USEFUL AS MEDICAMENTS” (OM PHARMA SA, priority 2020, published 2023).
